Measurements from PMC12856970 (Clinical Pharmacology in Drug Development, 2025).
“Also recorded” adds a separate entry of the source. Where two headings read alike, the source gives them in different places.

Assays:
[1] = design: method as in PMID 30580575; details: monotherapies; cited from earlier work
[2] = Phase 1 DDI study: asciminib plasma trough concentration (Ctrough); type: in vivo, human (healthy participants); details: asciminib 80 mg QD (i.e. on day 8)
[3] = Phase 1 DDI study: safety and tolerability (AEs, ECG); type: in vivo, human (healthy participants); details: asciminib 80 mg QD multiple doses alone or with atorvastatin 20 mg
[4] = cited from earlier work
OATP1B1 = details: in vitro; cited from earlier work
OATP1B3 = details: in vitro; cited from earlier work
P‐gp = details: in vitro; cited from earlier work
BCRP = details: in vitro; cited from earlier work
OATP1B [5] = tested on: OATP1B; design: method as in data on file; details: single asciminib dose of 200 mg; ref data on file; cited from earlier work
CYP3A4 [6] = details: midazolam single dose co-administered with asciminib 40 mg BID at steady state vs alone; cited from earlier work
CYP3A4 [7] = details: midazolam with asciminib 200 mg BID; cited from earlier work
[8] = Phase 1 DDI study: plasma PK of atorvastatin and its metabolites after atorvastatin alone or with steady-state asciminib (LC-MS/MS, non-compartmental); details: for AUCinf, Gmean (GCV%) / AUCinf, Mean (SD) / AUCinf, Median (min, max) / AUClast, Gmean (GCV%) / AUClast, Mean (SD) / AUClast, Median (min, max) / Cmax, Gmean (GCV%) / Cmax, Mean (SD) / Cmax, Median (min, max) / T1/2, Gmean (GCV%) / T1/2, Mean (SD) / T1/2, Median (min, max) / Tmax, Median (min, max): plasma; for AUCinf, Adjusted Gmean / AUClast, Adjusted Gmean / Cmax, Adjusted Gmean: linear mixed-effects model, back-transformed; for AUCinf Gmean ratio / AUClast Gmean ratio / Cmax Gmean ratio: atorvastatin + asciminib/atorvastatin; for Effect of asciminib on Cmax, AUClast and AUCinf (in words): atorvastatin + steady-state asciminib versus atorvastatin alone
OATP = tested on: OATP; design: method as in PMID 27317801; details: after a single dose of rifampicin, healthy participants; cited from earlier work
OATP1B [9] = test: Phase 1 DDI study: plasma CP-1 AUC0-24 as endogenous biomarker of OATP1B, without or with steady-state asciminib; details: for AUC0‐24, Adjusted Gmean: linear mixed-effects model
[10] = steady state, 40 mg BID regimen
[11] = atorvastatin 20 mg single dose + asciminib 80 mg QD at steady state (day 9)
[12] = atorvastatin 20 mg single oral dose alone (day 1)
[13] = atorvastatin + asciminib 80 mg QD steady state
[14] = atorvastatin + asciminib at steady state

CC(C)c1c(C(=O)Nc2ccccc2)c(-c2ccccc2)c(-c2ccc(F)cc2)n1CC[C@@H](O)C[C@@H](O)CC(=O)O [Atorvastatin]
Rate of hospitalization due to rhabdomyolysis [1]: 0.44 per 10,000 patient‐years

O=C(Nc1ccc(OC(F)(F)Cl)cc1)c1cnc(N2CC[C@@H](O)C2)c(-c2ccn[nH]2)c1 [asciminib, Asciminib]
Time of dosing until steady state was attained [2]: 3 days | Tolerability (in words) [3]: well tolerated | Time of dosing to reach steady-state levels [4]: ≤ 3 days | AUC0‐12, Gmean [4, 10]: 5262 ng x h/mL | Cmax, Gmean [4, 10]: 793 ng/mL | Cmax, Gmean ([4]; steady state, 80 mg QD regimen): 1781 ng/mL | Inhibition of OATP1B1 (in words) (OATP1B1): could inhibit; also recorded: can inhibit | Inhibition of OATP1B3 (in words) (OATP1B3): could inhibit; also recorded: can inhibit | Inhibition of P‐gp (in words) (P‐gp): could inhibit; also recorded: can inhibit | Inhibition of BCRP (in words) (BCRP): could inhibit; also recorded: can inhibit | DDI effect on CP‐1 (in words) (OATP1B [5]): no DDI effect

Cc1ncc2n1-c1ccc(Cl)cc1C(c1ccccc1F)=NC2 [midazolam]
Increase in AUCinf (CYP3A4 [6]): 28% | Increase in AUClast (CYP3A4 [6]): 27% | Increase in Cmax (CYP3A4 [6]): 11% | Increase in AUCinf (PBPK prediction) (CYP3A4 [7]): 88% | Increase in Cmax (PBPK prediction) (CYP3A4 [7]): 58%

CC(C)c1c(C(=O)Nc2ccccc2O)c(-c2ccccc2)c(-c2ccc(F)cc2)n1CC[C@@H](O)C[C@@H](O)CC(=O)O [o‐Hydroxy‐atorvastatin, o‐hydroxy‐atorvastatin]
AUCinf, Gmean (GCV%) [8, 11]: 41.7 (34.9) ng x h/mL | AUCinf, Mean (SD) [8, 11]: 44.1 (15.5) ng x h/mL | AUCinf, Median (min, max) [8, 11]: 42.8 (23.6, 81.7) ng x h/mL | AUClast, Gmean (GCV%) [8, 11]: 39.2 (36.8) ng x h/mL | AUClast, Mean (SD) [8, 11]: 41.7 (15.4) ng x h/mL | AUClast, Median (min, max) [8, 11]: 40.1 (21.4, 79.2) ng x h/mL | Cmax, Gmean (GCV%) [8, 11]: 3.98 (45.4) ng/mL | Cmax, Mean (SD) [8, 11]: 4.27 (2.11) ng/mL | Cmax, Median (min, max) [8, 11]: 3.88 (1.56, 11.3) ng/mL | T1/2, Gmean (GCV%) [8, 11]: 11.7 (28.4) h | T1/2, Mean (SD) [8, 11]: 12.2 (3.43) h | T1/2, Median (min, max) [8, 11]: 12.2 (7.33, 21.2) h | Tmax, Median (min, max) [8, 11]: 1.50 (0.50, 6.00) h | AUCinf, Gmean (GCV%) [8, 12]: 41.2 (34.7) ng x h/mL | AUCinf, Mean (SD) [8, 12]: 43.4 (14.3) ng x h/mL | AUCinf, Median (min, max) [8, 12]: 44.1 (23.1, 77.7) ng x h/mL | AUClast, Gmean (GCV%) [8, 12]: 37.0 (42.2) ng x h/mL | AUClast, Mean (SD) [8, 12]: 39.8 (15.0) ng x h/mL | AUClast, Median (min, max) [8, 12]: 41.6 (15.2, 75.8) ng x h/mL | Cmax, Gmean (GCV%) [8, 12]: 3.66 (56.9) ng/mL | Cmax, Mean (SD) [8, 12]: 4.14 (1.98) ng/mL | Cmax, Median (min, max) [8, 12]: 4.04 (1.42, 8.11) ng/mL | T1/2, Gmean (GCV%) [8, 12]: 9.64 (28.0) h | T1/2, Mean (SD) [8, 12]: 10.0 (2.95) h | T1/2, Median (min, max) [8, 12]: 9.67 (5.12, 19.9) h | Tmax, Median (min, max) [8, 12]: 2.00 (0.50, 5.00) h | AUCinf, Adjusted Gmean [8, 13]: 41.7 ng x h/mL | AUClast, Adjusted Gmean [8, 13]: 39.4 ng x h/mL | Cmax, Adjusted Gmean [8, 13]: 3.95 ng/mL | Time post-dose at which mean Cmax was observed (mean concentration-time profile) [8, 14]: 2 h | AUCinf Gmean ratio [8]: 1.02 | AUClast Gmean ratio [8]: 1.07 | Cmax Gmean ratio [8]: 1.08 | Effect of asciminib on Cmax, AUClast and AUCinf (in words) [8]: did not affect; also recorded: comparable between treatments; also recorded: negligible | Time post-dose at which mean Cmax was observed (mean concentration-time profile) ([8]; atorvastatin alone): 2 h | AUCinf, Adjusted Gmean ([8]; atorvastatin alone): 40.7 ng x h/mL | AUClast, Adjusted Gmean ([8]; atorvastatin alone): 37.0 ng x h/mL | Cmax, Adjusted Gmean ([8]; atorvastatin alone): 3.66 ng/mL

CC[C@H](C)C(=O)O[C@H]1C[C@H](O)C=C2C=C[C@H](C)[C@H](CC[C@@H](O)C[C@@H](O)CC(=O)O)[C@H]21 [pravastatin]
Rate of hospitalization due to rhabdomyolysis [1]: 0.44 per 10,000 patient‐years

CC(C)c1c(C(=O)Nc2ccc(O)cc2)c(-c2ccccc2)c(-c2ccc(F)cc2)n1CC[C@@H](O)C[C@@H](O)CC(=O)O [p‐Hydroxy‐atorvastatin, p‐hydroxy‐atorvastatin]
AUCinf, Gmean (GCV%) [8, 11]: 6.2 (95.2) ng x h/mL | AUCinf, Mean (SD) [8, 11]: 7.67 (4.91) ng x h/mL | AUCinf, Median (min, max) [8, 11]: 6.63 (1.50, 15.7) ng x h/mL | AUClast, Gmean (GCV%) [8, 11]: 2.9 (87.7) ng x h/mL | AUClast, Mean (SD) [8, 11]: 3.83 (3.28) ng x h/mL | AUClast, Median (min, max) [8, 11]: 2.99 (0.717, 13.6) ng x h/mL | Cmax, Gmean (GCV%) [8, 11]: 0.16 (48.0) ng/mL | Cmax, Mean (SD) [8, 11]: 0.171 (0.0880) ng/mL | Cmax, Median (min, max) [8, 11]: 0.145 (0.0699, 0.425) ng/mL | T1/2, Gmean (GCV%) [8, 11]: 22.8 (58.5) h | T1/2, Mean (SD) [8, 11]: 25.3 (10.9) h | T1/2, Median (min, max) [8, 11]: 26.0 (8.45, 40.9) h | Tmax, Median (min, max) [8, 11]: 10.00 (1.00, 12.00) h | Tmax, Median (min, max) ([8]; atorvastatin 20 mg single dose + asciminib 80 mg QD at steady state (day 9), listed as p‐hydroxy‐atorvastatin): approximately 10 h | AUCinf, Gmean (GCV%) [8, 12]: 7.4 (53.2) ng x h/mL | AUCinf, Mean (SD) [8, 12]: 8.16 (4.48) ng x h/mL | AUCinf, Median (min, max) [8, 12]: 6.60 (4.86, 14.6) ng x h/mL | AUClast, Gmean (GCV%) [8, 12]: 3.1 (69.8) ng x h/mL | AUClast, Mean (SD) [8, 12]: 3.73 (2.75) ng x h/mL | AUClast, Median (min, max) [8, 12]: 2.56 (0.964, 12.5) ng x h/mL | Cmax, Gmean (GCV%) [8, 12]: 0.17 (53.8) ng/mL | Cmax, Mean (SD) [8, 12]: 0.189 (0.112) ng/mL | Cmax, Median (min, max) [8, 12]: 0.144 (0.0793, 0.468) ng/mL | T1/2, Gmean (GCV%) [8, 12]: 30.4 (24.6) h | T1/2, Mean (SD) [8, 12]: 31.1 (7.50) h | T1/2, Median (min, max) [8, 12]: 30.4 (24.3, 39.3) h | Tmax, Median (min, max) [8, 12]: 10.00 (1.50, 12.01) h | Tmax, Median (min, max) ([8]; atorvastatin 20 mg single oral dose alone (day 1), listed as p‐hydroxy‐atorvastatin): approximately 10 h | AUCinf, Adjusted Gmean [8, 13]: 5.92 ng x h/mL | AUClast, Adjusted Gmean [8, 13]: 2.89 ng x h/mL | Cmax, Adjusted Gmean [8, 13]: 0.156 ng/mL | Time post-dose at which mean Cmax was observed (mean concentration-time profile) [8, 14]: 10 h | AUCinf Gmean ratio [8]: 0.74 | AUClast Gmean ratio [8]: 0.98 | Cmax Gmean ratio [8]: 0.98 | Effect of asciminib on Cmax, AUClast and AUCinf (in words) [8]: did not affect; also recorded: negligible | Time post-dose at which mean Cmax was observed (mean concentration-time profile) ([8]; atorvastatin alone): 10 h | AUCinf, Adjusted Gmean ([8]; atorvastatin alone): 8.04 ng x h/mL | AUClast, Adjusted Gmean ([8]; atorvastatin alone): 2.96 ng x h/mL | Cmax, Adjusted Gmean ([8]; atorvastatin alone): 0.160 ng/mL

coproporphyrin‐1 [CP‐1]
Increase in Cmax (OATP): 5.7 fold | AUC0‐24 Gmean ratio (OATP1B [9]; atorvastatin + asciminib/atorvastatin): 1.02 | Effect of asciminib on CP‐1 plasma concentrations (in words) (OATP1B [9]; steady-state asciminib 80 mg QD): not affected; also recorded: remained unaffected | AUC0‐24, Adjusted Gmean (OATP1B [9]; treatment 'Atorvastatin + asciminib' (steady-state asciminib)): 12,500 pg x h/mL | AUC0‐24, Adjusted Gmean (OATP1B [9]; treatment 'Atorvastatin' (without asciminib)): 12,300 pg x h/mL | AUC0‐24, Gmean (GCV%) (OATP1B [9]; with asciminib 80 mg QD, day 8, plasma): 12,600 pg x h/mL | AUC0‐24, Gmean (GCV%) (OATP1B [9]; without asciminib, day 4, plasma): 12,300 pg x h/mL
